From patent publication US20060240405A1, “Method for assaying replication of hbv and testing ... drugs” (priority 2002, published 2006)

Test system: wild type HBV genomes population
Assay: Phenotypic drug susceptibility assay: Huh7 cells transfected with type-I vector clones, Southern blot of intracellular replicative HBV DNA intermediates
Conditions: Hepatitis B virus, Huh-7, read-out: IC50 (intracellular replicative HBV DNA intermediates)

For `Nc1ccn([C@@H]2CS[C@H](CO)O2)c(=O)n1` [lamivudine, β-L-(−)-2′,3′-dideoxy-3′-thiacytidine], the IC50 was < 100 nM.
